# Data published in paper PMC9975351 (Frontiers in Pharmacology, 2023).
# Like-named read-outs stand apart in the source and are kept apart here.
# Key:
# [1] = Metabolic stability and metabolite formation in pooled human liver microsomes with NADPH and/or UDPGA; type: in vitro ADME; conditions: for Concentration remaining, % of the initial concentration: 1 µM, HLMs; for Hepatic clearance CLh / CLint scaled at 1 µM: in vitro-in vivo extrapolation, well-stirred model; for half-life at 1 µM / microsomal CLint at 1 µM / CLint scaled at 1 µM: human, microsomes; for half-life at 1 µM: pH 7.4, 1 µM compound, read-out: Half-life; for microsomal CLint at 1 µM: read-out: Intrinsic clearance (in vitro) Clint; for CLint scaled at 1 µM: read-out: Intrinsic clearance (in vivo) CLint
# Method: Microsomal incubation was conducted in triplicate using 0.1 M potassium phosphate buffer (PPB, pH 7.4) in eight-well tube strips in an 8 × 12 rack (1.2 mL; VWR, Emeryville, CA, United States). […] The mixture was pre-incubated at 37°C with shaking at approximately 100 rpm for 5 min. UGT glucuronidation was performed with HLMs (1 mg/mL) and alamethicin (25 μg/mg microsomal protein) in a 100-mM PPB (pH 7.4) solution on ice for 15 min. […] CYP, UGT, and combined reactions were initiated by addition of the NADPH regenerating system, UDPGA (1 mM), and both, respectively. […] The incubation mixtures were then centrifuged at 2,000 × g and 4°C for 20 min, and the supernatants were analyzed by LC-QTOF HRMS.
# The incubation mixtures were pre-incubated at 37°C in a shaking water bath at approximately 100 rpm for 5 min. Reactions were initiated by the addition of an NADPH-regenerating system. The reaction was terminated, centrifuged then analyzed using the same method described above.
# In the microsomal stability analysis, degradation half-life (t½) values were calculated using the following equation: t½=0.693/k where k is the first-order degradation rate constant, estimated by one-phase exponential-decay non-linear regression of the degradation time-course data using Graph Pad Prism 8.0 (Graph Pad Software Inc., San Diego, CA, United States). In vitro metabolic stability parameters, microsomal intrinsic clearance (CLint,mic), apparent intrinsic clearance (CL′int), and hepatic clearance (CLh), were calculated according to the well-stirred model approach ([Pang and Rowland, 1977]; [Baranczewski et al., 2006]). The apparent kinetic parameters of GRL0617 metabolism were determined by fitting a one-enzyme Michaelis-Menten equation. […] All data are presented as mean ± SD. Data were compared between groups using the unpaired Student’s t-test. The significance level was set at p < 0.05, unless indicated otherwise.
# CYP3A4 = molecular target: T1, CYP3A4 (Homo sapiens, UniProt P08684); assay: Reaction phenotyping with recombinant CYP3A4; type: in vitro ADME; conditions: 1 µM, 50 pmol/mL recombinant CYP3A4, NADPH, 60 min, vs control
# T1 construct: purchased Cypex (Dundee, UK); host or cells: bactosomes (bacterial membranes)
# Method: (§1) Reactions were conducted in triplicate using 0.1 M PPB (pH 7.4) in eight-well tube strips in an 8 × 12 rack. […] The mixture was pre-incubated at 37°C with shaking at approximately 100 rpm for 5 min. Reactions were initiated by the addition of the NADPH-regenerating system and quenched with 200 µL ice-cold acetonitrile containing 50 nM CBZ. The samples were centrifuged at 1,000 × g and 4°C for 20 min, and the supernatants were subjected to LC-QTOF HRMS. […] The reaction was incubated, initiated, terminated, centrifuged then analyzed using the same method described above.
# (§2) Reaction phenotyping is the identification of isoforms involved in drug metabolism and is important for the decipherment of drug biotransformation pathways and understanding of possible drug-drug interactions. M6, M7, and M8 were also detected in recombinant CYP incubations.
# [2] = tested on: other CYP isoforms (CYP1A2, 2A6, 2B6, 2C8, 2C9, 2E1); assay: Reaction phenotyping with other recombinant CYP isoforms; type: in vitro ADME, human; conditions: 1 µM, 50 pmol/mL of each other recombinant CYP isoform, NADPH, 60 min
# Method: as §1, §2
# CYP2A6 = molecular target: T2, CYP2A6 (Homo sapiens, UniProt P11509); assay: CYP cocktail inhibition assay in pooled HLMs, CYP2A6; conditions: substrate cocktail
# T2 sequence (P11509 1-494): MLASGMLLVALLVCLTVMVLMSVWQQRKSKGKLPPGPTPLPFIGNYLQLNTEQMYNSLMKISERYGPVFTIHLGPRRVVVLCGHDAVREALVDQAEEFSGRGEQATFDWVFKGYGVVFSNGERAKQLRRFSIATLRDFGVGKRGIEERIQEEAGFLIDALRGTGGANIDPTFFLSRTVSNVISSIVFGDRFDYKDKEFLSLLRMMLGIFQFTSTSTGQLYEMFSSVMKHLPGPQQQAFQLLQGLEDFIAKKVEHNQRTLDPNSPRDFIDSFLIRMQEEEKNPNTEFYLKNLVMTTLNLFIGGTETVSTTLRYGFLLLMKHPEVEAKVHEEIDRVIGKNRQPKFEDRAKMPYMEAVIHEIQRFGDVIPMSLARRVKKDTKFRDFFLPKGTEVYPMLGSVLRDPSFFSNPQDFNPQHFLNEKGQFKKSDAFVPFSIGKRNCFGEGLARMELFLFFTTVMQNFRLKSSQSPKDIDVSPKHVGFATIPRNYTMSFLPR
# Method: (§3) The drug–drug interaction potential was evaluated using a CYP cocktail assay that involved microsomal incubation and NADPH, as described elsewhere ([Lee et al., 2012]). […] The first reactions were initiated by NADPH addition, and each mixture was incubated in a shaking water bath at 37°C for 30 min. The final incubation was performed for 10 min with a total volume of 200 µL by adding substrates (tolbutamide (set B) as a CYP2C9 selective substrate, midazolam (set A) and testosterone (set B) as CYP3A4 selective substrates) and NADPH. The reaction was stopped and quenched by adding 200 µL of ice-cold acetonitrile containing 50 nM CBZ as internal standard, then centrifuged at 3,000 x g for 20 min. The supernatants were injected in LC-QTOF system. IC50 shift values were calculated as the ratio of the IC50 value obtained after pre-incubation without NADPH divided by the IC50 value obtained after 30 min incubation with NADPH.
# (§4) The LC-QTOF system consisted of an Exion AD LC device (AB Sciex, Framingham, MA, United States) and a TripleTOF 6,600 + system (AB Sciex) equipped with an IonDrive Turbo V source operated in positive TOF information-dependent acquisition (IDA) MS2 scan mode. The TOF scan dwell time was 50 ms, and the 20 × IDA MS2 scan time was acquired with a 30-ms dwell time. […]
# CYP2D6 = CYP2D6 (Homo sapiens, UniProt P10635); conditions: pooled HLMs, substrate cocktail
# Method: as §3, §4
# T1 sequence (P08684 whole entry): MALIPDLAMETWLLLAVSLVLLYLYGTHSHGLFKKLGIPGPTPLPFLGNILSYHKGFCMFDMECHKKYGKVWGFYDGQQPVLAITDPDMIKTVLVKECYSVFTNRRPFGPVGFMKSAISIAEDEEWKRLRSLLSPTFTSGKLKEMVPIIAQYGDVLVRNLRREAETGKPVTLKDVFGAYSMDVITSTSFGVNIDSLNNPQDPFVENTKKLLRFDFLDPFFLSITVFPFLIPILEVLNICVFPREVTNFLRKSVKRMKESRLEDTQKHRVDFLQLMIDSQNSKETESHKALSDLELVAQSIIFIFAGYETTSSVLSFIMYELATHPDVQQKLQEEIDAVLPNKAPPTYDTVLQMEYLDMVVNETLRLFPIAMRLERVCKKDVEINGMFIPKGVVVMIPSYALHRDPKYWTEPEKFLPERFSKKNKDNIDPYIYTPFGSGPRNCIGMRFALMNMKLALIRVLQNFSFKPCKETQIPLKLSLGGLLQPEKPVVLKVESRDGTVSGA
# Sequence of CYP2D6 (P10635 whole entry): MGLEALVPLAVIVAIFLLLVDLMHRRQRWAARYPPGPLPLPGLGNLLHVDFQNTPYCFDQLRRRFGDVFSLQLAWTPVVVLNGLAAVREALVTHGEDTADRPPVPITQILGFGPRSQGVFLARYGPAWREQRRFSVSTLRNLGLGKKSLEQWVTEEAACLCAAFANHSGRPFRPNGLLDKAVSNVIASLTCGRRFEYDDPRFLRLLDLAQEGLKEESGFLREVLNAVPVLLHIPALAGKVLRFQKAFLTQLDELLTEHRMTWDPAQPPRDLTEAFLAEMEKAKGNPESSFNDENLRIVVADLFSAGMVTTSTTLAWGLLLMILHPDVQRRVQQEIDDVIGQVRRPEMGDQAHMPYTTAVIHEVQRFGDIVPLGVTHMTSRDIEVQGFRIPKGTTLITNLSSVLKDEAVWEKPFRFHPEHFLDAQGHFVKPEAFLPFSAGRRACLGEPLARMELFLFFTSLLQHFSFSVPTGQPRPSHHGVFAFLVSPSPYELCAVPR
smiles,measurement,setting,value
"Cc1ccc(N)cc1C(=O)N[C@H](C)c1cccc2ccccc12 [GRL0617, 5-amino-2-methyl-N-[(1R)-1-(1-naphthalenyl)ethyl]benzamide]",Half-life,"[1]; 1 µM compound, 1 mg/mL pooled HLMs with NADPH (phase I)",26.4 min
same,"Concentration remaining, % of the initial concentration",[1]; 60 min incubation with NADPH,44.5% ± 5.3%
same,"Concentration remaining, % of the initial concentration",[1]; 60 min incubation with NADPH + UDPGA,47.2% ± 7.5%
same,"Concentration remaining, % of the initial concentration",[1]; 60 min incubation with UDPGA,93.4% ± 6.1%
same,Direct UGT glucuronidation,[1]; HLM with UDPGA only,No direct UGT glucuronidation was detected
same,Hepatic clearance CLh,[1]; NADPH + UDPGA,11.1 mL/min/kg
same,Hepatic clearance CLh,[1]; NADPH,11.7 mL/min/kg
same,half-life at 1 µM,[1]; 1 mg/mL pooled HLMs with NADPH (phase I),< 30 min
same,half-life at 1 µM,[1]; 1 mg/mL pooled HLMs with NADPH + UDPGA (phase I + II),29.5 min
same,microsomal CLint at 1 µM,"[1]; pH 7.4, HLMs with NADPH + UDPGA",23.5 µL/min/mg
same,microsomal CLint at 1 µM,"[1]; pH 7.4, HLMs with NADPH",26.3 µL/min/mg
same,CLint scaled at 1 µM,"[1]; pH 7.4, NADPH + UDPGA",24.1 mL/min/kg
same,CLint scaled at 1 µM,"[1]; pH 7.4, NADPH",27 mL/min/kg
same,GRL0617 level remaining,CYP3A4,9.48% ± 1.26%
same,Reduction of GRL0617 level,[2],< 10%
same,Concentrations at which CYP2A6 was inhibited,CYP2A6,≥ 50 µM
same,Concentrations at which CYP2D6 was inhibited,CYP2D6,≥ 50 µM
